The source made the active and inactive calls. The calls are words filed in the database; no cut-off is given here.

From ChEMBL document CHEMBL4819021, “Paratrimerins J-Y, Dimeric Coumarins Isolated from the Stems of Paramignya trimera” (J Nat Prod, 2021) come the findings set out here.

What all share (assay type): functional, cell-based
One experiment has as its system Huh-7. Put plainly: Cytotoxicity against human Huh-7 cells assessed as reduction in cell viability measured after 72 hrs by MTS assay. Particulars: Huh-7, 72 h.
In a further experiment the test system is HT-29. As to the kind of experiment: Cytotoxicity against human HT-29 cells harboring Ras/Raf mutant assessed as reduction in cell viability measured after 72 hrs by MTS assay. The settings on record: HT-29, 72 h.
The subject of another experiment is HT-1080. As to the kind of experiment: Cytotoxicity against human HT-1080 cells assessed as reduction in cell viability measured after 72 hrs by MTS assay. Particulars: HT-1080, 72 h.
For another experiment, the system named is SW-620. As to the kind of experiment: Cytotoxicity against human SW-620 cells assessed as reduction in cell viability at 40 uM measured after 72 hrs by MTS assay. On the technique in general: Tetrazolium dyes change colour on reduction, which living cells bring about.
The subject of the next experiment is COLO 205. As to the kind of experiment: Cytotoxicity against human COLO 205 cells assessed as reduction in cell viability at 40 uM measured after 72 hrs by MTS assay.
Another experiment deals with RKO. Put plainly: Cytotoxicity against human RKO cells assessed as reduction in cell viability at 40 uM measured after 72 hrs by MTS assay.
The next experiment relates to HCC1428. As to the kind of experiment: Cytotoxicity against human HCC1428 cells assessed as reduction in cell viability at 40 uM measured after 72 hrs by MTS assay.
A further experiment deals with SK-HEP1. As to the kind of experiment: Cytotoxicity against human SK-HEP1 cells assessed as reduction in cell viability at 40 uM measured after 72 hrs by MTS assay.
The next experiment relates to SK-BR-3. Put plainly: Cytotoxicity against human SK-BR-3 cells assessed as reduction in cell viability at 40 uM measured after 72 hrs by MTS assay.
The next experiment has as its system HCC70. As to the kind of experiment: Cytotoxicity against human HCC70 cells assessed as reduction in cell viability at 40 uM measured after 72 hrs by MTS assay.
A further experiment deals with HCT-8. Put plainly: Cytotoxicity against human HCT-8 cells assessed as reduction in cell viability at 40 uM measured after 72 hrs by MTS assay.
The subject of the next experiment is BT-549. Put plainly: Cytotoxicity against human BT-549 cells assessed as reduction in cell viability at 40 uM measured after 72 hrs by MTS assay.
Another experiment deals with Hs-578T. Put plainly: Cytotoxicity against human Hs-578T cells assessed as reduction in cell viability at 40 uM measured after 72 hrs by MTS assay.
The subject of another experiment is MCF7. As to the kind of experiment: Cytotoxicity against human MCF7 cells assessed as reduction in cell viability at 40 uM measured after 72 hrs by MTS assay.
The subject of the next experiment is MDA-MB-231. Put plainly: Cytotoxicity against human MDA-MB-231 cells assessed as reduction in cell viability at 40 uM measured after 72 hrs by MTS assay.
The subject of a further experiment is MDA-MB-435. Put plainly: Cytotoxicity against human MDA-MB-435 cells assessed as reduction in cell viability at 40 uM measured after 72 hrs by MTS assay.
The subject of the next experiment is T47D. Put plainly: Cytotoxicity against human T47D cells assessed as reduction in cell viability at 40 uM measured after 72 hrs by MTS assay.
The next experiment concerns KM12. As to the kind of experiment: Cytotoxicity against human KM12 cells assessed as reduction in cell viability at 40 uM measured after 72 hrs by MTS assay.
The next experiment deals with HCC38. Put plainly: Cytotoxicity against human HCC38 cells assessed as reduction in cell viability at 40 uM measured after 72 hrs by MTS assay.
In the next experiment the test system is SW480. As to the kind of experiment: Cytotoxicity against human SW480 cells assessed as reduction in cell viability at 40 uM measured after 72 hrs by MTS assay.
Another experiment concerns HCT-116. As to the kind of experiment: Cytotoxicity against human HCT-116 cells assessed as reduction in cell viability at 40 uM measured after 72 hrs by MTS assay.
The test system of the next experiment is MDA-MB-468. As to the kind of experiment: Cytotoxicity against human MDA-MB-468 cells assessed as reduction in cell viability at 40 uM measured after 72 hrs by MTS assay.

In the case of `CC(C)=CCC/C(C)=C/Cc1cc(/C=C/C(=O)O[C@@H](Cc2c(OCC=C(C)C)ccc3ccc(=O)oc23)C(C)(C)O)c(O)cc1O`, the results for the IC50 with Huh-7, in the experiment on HT-29 and in the experiment with HT-1080 were 14.9 µM, 22.5 µM and 18.4 µM, respectively.
`CC1=C[C@@H](c2cc3ccc(=O)oc3cc2O[C@@H]2O[C@H](COC3OC[C@@H](O)[C@H](O)[C@H]3O)[C@@H](O)[C@H](O)[C@H]2O)[C@@](C)(/C=C/c2cc3ccc(=O)oc3cc2O[C@@H]2O[C@H](CO)[C@@H](O)[C@H](O)[C@H]2O)CC1` (some centres not stated): the result in the experiment with SW-620, in the experiment on COLO 205, with RKO, with HCC1428, in the experiment with SK-HEP1 and with SK-BR-3 was inactive. Further, the outcome in the experiment on HCC70, with HCT-8, in the experiment on BT-549, in the experiment on Hs-578T, with MCF7 and in the experiment on MDA-MB-231 was inactive. The result with MDA-MB-435, with T47D, in the experiment on KM12, in the experiment on HCC38, in the experiment on SW480 and with HCT-116 was inactive. The outcome with MDA-MB-468 was inactive.
As for `CC1=C[C@H](c2cc3ccc(=O)oc3cc2O[C@@H]2O[C@H](CO)[C@@H](O)[C@H](O)[C@H]2O)[C@@](C)(/C=C/c2cc3ccc(=O)oc3cc2O[C@@H]2O[C@H](COC3OC[C@@H](O)[C@H](O)[C@H]3O)[C@@H](O)[C@H](O)[C@H]2O)CC1` (some centres not stated), the result in the experiment on SW-620, in the experiment with COLO 205, in the experiment with RKO, in the experiment on HCC1428, in the experiment with SK-HEP1 and in the experiment with SK-BR-3 was inactive. The outcome with HCC70, in the experiment with HCT-8, in the experiment on BT-549, in the experiment with Hs-578T, in the experiment on MCF7 and in the experiment on MDA-MB-231 was inactive. In addition, the result with MDA-MB-435, in the experiment with T47D, in the experiment on KM12, with HCC38, in the experiment on SW480 and in the experiment on HCT-116 was inactive. In the experiment on MDA-MB-468, the outcome was inactive.
Consider `CC1=C[C@H](c2cc3ccc(=O)oc3cc2O[C@@H]2O[C@H](CO)[C@@H](O)[C@H](O)[C@H]2O)[C@](C)(/C=C/c2cc3ccc(=O)oc3cc2O[C@@H]2O[C@H](CO[C@@H]3OC[C@](O)(CO)[C@H]3O)[C@@H](O)[C@H](O)[C@H]2O)CC1`, for which the result with SW-620, in the experiment on COLO 205, in the experiment with RKO, in the experiment with HCC1428, in the experiment with SK-HEP1 and with SK-BR-3 was inactive. For the same molecule, the outcome in the experiment on HCC70, with HCT-8, in the experiment with BT-549, in the experiment with Hs-578T, in the experiment with MCF7 and with MDA-MB-231 was inactive. Also, the outcome with MDA-MB-435, in the experiment with T47D, in the experiment with KM12, in the experiment on HCC38, in the experiment with SW480 and in the experiment on HCT-116 was inactive. Moreover, the result in the experiment on MDA-MB-468 was inactive.
For the molecule `CC1=C[C@@H](c2cc3ccc(=O)oc3cc2O[C@@H]2O[C@H](CO)[C@@H](O)[C@H](O)[C@H]2O)[C@@](C)(/C=C/c2cc3ccc(=O)oc3cc2O[C@@H]2O[C@H](CO[C@@H]3OC[C@](O)(CO)[C@H]3O)[C@@H](O)[C@H](O)[C@H]2O)CC1`, the outcome in the experiment on SW-620, with COLO 205, in the experiment on RKO, in the experiment on HCC1428, in the experiment with SK-HEP1 and in the experiment with SK-BR-3 was inactive. Further, the outcome in the experiment on HCC70, with HCT-8, in the experiment on BT-549, with Hs-578T, with MCF7 and in the experiment on MDA-MB-231 was inactive. In addition, the outcome in the experiment with MDA-MB-435, with T47D, with KM12, with HCC38, with SW480 and in the experiment on HCT-116 was inactive. Also, in the experiment with MDA-MB-468, the outcome was inactive.
Take `CC1=C[C@@H](c2cc3ccc(=O)oc3cc2O[C@@H]2O[C@H](CO[C@@H]3OC[C@](O)(CO)[C@H]3O)[C@@H](O)[C@H](O)[C@H]2O)[C@@](C)(/C=C/c2cc3ccc(=O)oc3cc2O[C@@H]2O[C@H](CO)[C@@H](O)[C@H](O)[C@H]2O)CC1`: the outcome with SW-620, with COLO 205, in the experiment on RKO, in the experiment with HCC1428, in the experiment on SK-HEP1 and with SK-BR-3 was inactive. Besides, the outcome with HCC70, in the experiment on HCT-8, with BT-549, in the experiment on Hs-578T, in the experiment on MCF7 and in the experiment on MDA-MB-231 was inactive. Besides, the outcome with MDA-MB-435, with T47D, in the experiment on KM12, in the experiment on HCC38, with SW480 and with HCT-116 was inactive. In addition, the outcome in the experiment on MDA-MB-468 was inactive.
For `CC1=C[C@@H](c2cc3ccc(=O)oc3cc2O[C@@H]2O[C@H](CO)[C@@H](O)[C@H](O)[C@H]2O)[C@@](C)(/C=C/c2cc3ccc(=O)oc3cc2O[C@@H]2O[C@H](CO)[C@@H](O)[C@H](O)[C@H]2O)CC1`, the result with SW-620, in the experiment on COLO 205, in the experiment with RKO, with HCC1428, in the experiment on SK-HEP1 and in the experiment with SK-BR-3 was inactive. For the same molecule, the result in the experiment with HCC70, with HCT-8, with BT-549, in the experiment on Hs-578T, in the experiment on MCF7 and with MDA-MB-231 was inactive. Besides, the outcome in the experiment on MDA-MB-435, in the experiment with T47D, in the experiment with KM12, in the experiment with HCC38, in the experiment with SW480 and with HCT-116 was inactive. In addition, in the experiment with MDA-MB-468, the result was inactive.

For orientation: IC50 means the concentration that gives 50% inhibition.
